# Paper PMC4336573 (Chemistry & biology, 2015)
# Target: T1, CBX7ChD (Homo sapiens, UniProt O95931)
# T1 sequence (O95931 11-69 limits assumed): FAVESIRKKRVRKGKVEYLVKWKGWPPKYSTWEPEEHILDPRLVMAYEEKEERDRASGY
# Format: binding
row,IC50 [µM],SMILES
1,33.3,O=C(O)c1cc(O)c2c(c1)[C@H]([C@H]1c3cc(C(=O)O)cc(O)c3C(=O)c3c(O[C@@H]4O[C@H](CO)[C@@H](O)[C@H](O)[C@H]4O)cccc31)c1cccc(O[C@@H]3O[C@H](CO)[C@@H](O)[C@H](O)[C@H]3O)c1C2=O [Sennoside A]
2,5.5,O=C(O)C1=CC(=C(c2ccc(O)c(C(=O)O)c2)c2ccc(O)c(C(=O)O)c2)C=CC1=O [Aurin tricarboxylic acid]
3,3.9,Cc1cc(-c2ccc(/N=N/c3ccc4c(S(=O)(=O)O)cc(S(=O)(=O)O)c(N)c4c3O)c(C)c2)ccc1/N=N/c1ccc2c(S(=O)(=O)O)cc(S(=O)(=O)O)c(N)c2c1O [Evans blue]
4,7.5,Cc1cc(-c2ccc(/N=N/c3c(S(=O)(=O)O)cc4cc(S(=O)(=O)O)cc(N)c4c3O)c(C)c2)ccc1/N=N/c1c(S(=O)(=O)O)cc2cc(S(=O)(=O)O)cc(N)c2c1O [Trypan blue]
